The source of these data is ChEMBL document CHEMBL1201862, “PubChem BioAssay data set” (2004).

Structures are written as SMILES.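 Results reflect a 48-hour exposure of cells in 96-well plates to compound at five concentrations. At the GI50, growth is halved.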 Active and inactive are the calls of the source. No stated cut-off is given here; in the data, active = GI50 up to about 1.1 µM and inactive = higher.

The term GI50 denotes the concentration that inhibits growth by half.

What all share (experiment): DTP human tumour cell line panel, 48 h
Assay [1] concerns SK-MEL-2.
For assay [2], the system named is HOP-62.
Assay [3] has as its system SR.
The subject of assay [4] is K562.
The test system of assay [5] is SF-295.
Assay [6] deals with SN12C.
The test system of assay [7] is UACC-62.
For assay [8], the system named is EKVX.
Assay [9] concerns HCT-15.
Assay [10] concerns NCI-H460.
Assay [11] concerns RPMI-8226.
In assay [12] the test system is A549.
The test system of assay [13] is M14.
The subject of assay [14] is IGROV-1.
In assay [15] the test system is OVCAR-4.
The subject of assay [16] is TK-10.
For assay [17], the system named is A498.
Assay [18] relates to OVCAR-8.
Assay [19] concerns U-251.
Assay [20] concerns SF-268.

For the molecule `CC(Oc1ccccc1Cl)C(=O)NN1C(=O)CSC1c1ccccc1` (stereo not given), the GI50 in assay [1] was > 100 µM (inactive); in assay [2] it was > 100 µM (inactive); in assay [3] it was 21.9 µM (inactive); in [4], 32.7 µM (inactive); in assay [5], 68.7 µM (inactive); in [6] it was 74.6 µM (inactive). Also, the GI50 was > 100 µM (inactive) in assay [7]; > 100 µM (inactive) in assay [8]; over 100 µM in [9]; > 100 µM (inactive) in assay [10]; 83 µM (inactive) in assay [11]; 62.7 µM (inactive) in assay [12]. Also, the GI50 in assay [13], in assay [14], in assay [15], in [16], in [17] and in assay [18] was > 100 µM (inactive) throughout. The GI50 in assay [19] and in assay [20] was > 100 µM (inactive) each time.
`CC(C)(C)c1ccc(O)c(CN(Cc2c(O)ccc3ccccc23)C2CCCCC2)c1`: the GI50 in assay [1] is 16.7 µM (inactive); in [2] it was 17.6 µM (inactive); in assay [3], 16 µM (inactive); in [4], 16.9 µM (inactive); in [5], 18.3 µM (inactive); in assay [6], 17.3 µM (inactive). The GI50 in [7] is 15.6 µM (inactive); in assay [8] it was 15.8 µM (inactive); in assay [9] it was 16.4 µM; in assay [10] it was 15.8 µM (inactive); in assay [11], 26.6 µM (inactive); in assay [12], 18.5 µM (inactive). In addition, the GI50 was 12.6 µM (inactive) in [13]; 15.7 µM (inactive) in assay [14]; 20.7 µM (inactive) in assay [15]; 15.8 µM (inactive) in assay [16]; 19.5 µM (inactive) in [17]; 15.2 µM (inactive) in assay [18]. Besides, the GI50 in assay [19] is 16 µM (inactive); in assay [20], 16.1 µM (inactive).
Turning to `Cc1c2ccccc2c(C)c2c3c(ccc12)C(=O)C=CC3=O`, the GI50 is 45.7 µM (inactive) in [1]; > 44.5 µM (inactive) in [2]; 8.36 µM (inactive) in assay [3]; 11.3 µM (inactive) in [4]; 24.7 µM (inactive) in assay [5]; 27.8 µM (inactive) in assay [6]. The GI50 in assay [7] was 35.8 µM (inactive); in [8], 30.2 µM (inactive); in assay [9] it was 19.1 µM; in assay [10] it was > 67.6 µM (inactive); in [11] it was 29.9 µM (inactive); in [12] it was > 83.9 µM (inactive). Further, the GI50 was 30 µM (inactive) in assay [13]; 20 µM (inactive) in [14]; 23.4 µM (inactive) in [15]; 19.2 µM (inactive) in assay [16]; > 100 µM (inactive) in assay [17]; 14.9 µM (inactive) in [18]. Moreover, the GI50 in [19] was 52.1 µM (inactive); in [20], 18.4 µM (inactive).
For `O=C(/C=C/c1ccc(O)c(O)c1)OCCOC(=O)/C=C/c1ccc(O)c(O)c1`, the GI50 in [1] was 22.1 µM (inactive); in assay [2], 21.5 µM (inactive); in assay [3] it was 22.6 µM (inactive); in assay [4] it was 24.8 µM (inactive); in [5], 21.5 µM (inactive); in assay [6], 25.9 µM (inactive). Also, the GI50 in [7] is 18.7 µM (inactive); in assay [8], 26.7 µM (inactive); in [9], 35.1 µM; in assay [10], 37.2 µM (inactive); in assay [11] it was 36.2 µM (inactive); in [12], 32.1 µM (inactive). For the same molecule, the GI50 in [13] is 14.7 µM (inactive); in assay [14] it was 35 µM (inactive); in assay [15], 39.1 µM (inactive); in assay [16], 41.5 µM (inactive); in assay [17], 39.5 µM (inactive); in assay [18] it was 32.2 µM (inactive). The GI50 in assay [19] was 25.3 µM (inactive); in [20], 27.7 µM (inactive).
